Among the data in a melting point compilation (Tetko et al.; mined from patent text by program, amines drawn as free bases though some values may be those of a salt) are melting point values, retold here.

Bounds are passed on as bounds.

For orientation: melting point means the temperature, or range, at which the solid turns liquid.

Consider `CC(C)On1cnc2c(N)nc3ccccc3c21`, for which the melting point was 224 to 225 °C.

For the compound `Oc1c2c(nn1-c1ccccn1)CCc1cc(-c3ccc4c(c3)OCO4)ccc1-2`, the melting point was in the range of 205 to 206 °C. The result for `COc1ccc(Cl)cc1C(=O)NCCc1ccc(CC2SC(=O)NC2=O)cc1` (centres undefined) reads 182 °C; that for `COc1cc(C(C)=O)ccc1OCCCN1CCC(C(O)(c2ccc(F)cc2)c2ccc(F)cc2)CC1`, 142 to 143 °C. Consider `CC(=O)N1CCN(c2cncc(Cl)n2)CC1`, for which the melting point lay within 106 to 108 °C. In turn, `O=C(O)c1ccc(-c2noc(-c3ccc(C(F)(F)F)cc3)n2)cc1` came in with a melting point of 286 to 287 °C. The compound `C1=C(COc2ccccc2)CCN(Cc2c[nH]c3ncccc23)C1` had a melting point of 161 to 163 °C. The result for `CCCOC1CCC2C3CCC4=CC(=O)CCC4C3CCC12CC` (centres undefined) reads 83 to 84 °C. In turn, `CSC(=NC(=O)N(C)C)NC(=O)NC(C)(C)C` had a melting point of 74 to 78 °C. For `O=C(NCCO[N+](=O)[O-])c1ccc(Br)o1`, the melting point is 61 to 63 °C. With `Cc1noc(NS(=O)(=O)c2ccc(I)cc2)c1Br`, the melting point lay within 166 to 173 °C. `CN1CCN(c2cccc3ccc(NC(N)=S)cc23)CC1` yielded a melting point of 194 to 195 °C. As to `Cc1ccccc1-c1nc(-c2ccc(F)cc2)n[nH]1`, the melting point lay within 119 to 121 °C. Compound `CCN(CC)CC(=O)Nc1ccc([N+](=O)[O-])cc1` returned a melting point of 65 to 66 °C. Take `O=c1[nH]c(S)nnc1-c1cc(O)c(O)c([N+](=O)[O-])c1`: the melting point is 282 to 284 °C. `COc1ccc2c(c1)c(Cc1cc(=O)n(-c3cccc(Br)c3)[nH]1)c(C)n2C(=O)c1ccc(Cl)cc1`: the melting point was in the range of 164 to 167 °C. For `CC(C)(C)C(=O)COc1nn(CC(=O)C(C)(C)C)c(-c2ccc(S(C)(=O)=O)cc2)c1-c1ccc(F)cc1`, the melting point lay in the range of 180 to 182 °C. With `CC(=O)OCCOCn1cnc2c(=O)[nH]c(N)nc21`, the melting point fell in the range of 240 to 241 °C. As for `CC(=O)c1ccc2oc3nc(N)c(C(=O)O)cc3c(=O)c2c1`, the melting point was greater than 300 °C.

`CN(O)C(=O)C(=Cc1ccc2ccccc2c1)c1ccc(Br)cc1`: the melting point was 118 to 120 °C. `O=C(COc1cc(C(=O)O)c(O)c2ccccc12)c1ccccc1` displayed a melting point of 120 to 121 °C. In turn, `COc1cccc(Nc2ccnc(Nc3cc(OC)c(OC)c(SC)c3)n2)c1` showed a melting point of 68 to 70 °C. For `CC(C)(N)CNC(=O)CNC(=O)Cc1ccccc1`, the melting point lay in the range of 150 to 155 °C. In the case of `COc1ccc(-c2ncccc2OC2SCC(O)C(O)C2O)cc1` (centres undefined), the melting point amounted to 137 °C. Take `COc1ccc(-n2nc(CO)cc2-c2ccc(C)cc2)cc1`: the melting point is 100 to 102 °C. The result for `C1CNCCNCCNCCNCCNC1` reads 109 to 110 °C; that for `CN(Cc1cccc(O)c1)c1cnc(-c2ccccc2)c(-c2ccccc2)n1`, 156 to 157 °C. With `CN1C(=O)N2C(=NC1(C)C)N(C(=O)Nc1ccc(Cl)cc1)c1ccccc12` the figure was 206 to 211 °C; with `Cn1ncc(/C=C/C(=O)Nc2ccc(CNC(=O)c3ccccc3)cc2)c1-c1ccc(F)cc1`, 250 to 251 °C. Compound `CCC12CCC(=O)CC1CCc1cc(O)ccc12` (centres undefined) displayed a melting point of 168 to 170 °C. `CC(C)C[C@@H](CC=O)NC(=O)[C@H](Cc1c[nH]cn1)NC(=O)[C@H](Cc1ccccc1)NC(=O)OCc1ccccc1` registered a melting point of 173 to 175 °C. Compound `Cc1cc(C)n2nc(S(=O)(=O)Nc3c(Cl)ccc(C)c3Cl)nc2n1` gave a melting point of 286 to 288 °C. On to `O=C(CSc1ccc(C2=NCC(c3cc(Cl)cc(Cl)c3)(C(F)(F)F)C2)cc1Cl)NCC(F)(F)F` (centres undefined), for which the melting point was found to be 189 °C.

As for `CC=C1CC2C3CCc4cc(OC)ccc4C3CCC2(C)C1=O` (centres undefined), the melting point was 139 to 140 °C. In turn, `Cc1ccc(C2CC(C(N)=O)=NN2c2ccc(S(N)(=O)=O)cc2)cc1` (centres undefined) gave a melting point of 210 to 215 °C. Turning to `CCN(CC)CCNc1ccc(CNc2ccccc2)c2sc3ccccc3c(=O)c12`, the melting point was 133 to 135 °C. Compound `CC(=O)N(C)N(C(=O)OC(C)(C)C)c1ccc(CO)cc1` showed a melting point of 122 to 123 °C. `CCCCc1nc(Cl)c(CC(Cc2ccccc2)C(=O)O)n1Cc1ccccc1Cl` (centres undefined) displayed a melting point of 138 to 139 °C. `CN(CC(C)(C)c1ccc(Cl)c(Cl)c1)C(=O)Nc1c(F)cc(F)cc1CCc1cc(C(C)(C)C)c(O)c(C(C)(C)C)c1` showed a melting point of 145 to 147 °C.

`O=CC=C(c1cccc([N+](=O)[O-])c1)c1cccc([N+](=O)[O-])c1`: the melting point was 131 to 136 °C.

`Cn1ccnc1Sc1ccc([N+](=O)[O-])cc1F` yielded a melting point of 97 to 99 °C. Take `O=c1c2c[nH]c3c(c-2nn1-c1ccc(Cl)cc1)CSC3`: the melting point was greater than 330 °C. `CCCOC1CCCC(C2NC(=O)C2C(C)O[Si](C)(C)C(C)(C)C)C1O` (centres undefined) returned a melting point of 119 to 121 °C. As to `CC(CNc1ccc(C(=O)O)cc1)Oc1cccc2ccccc12` (centres undefined), the melting point fell in the range of 142 to 144 °C.

With `CCCCc1nc(C#N)c(C#N)n1Cc1ccc(N)cc1`, the melting point fell in the range of 99 to 104 °C. The compound `Cc1nn(C)c2c(=O)n(-c3ccc(Cl)c(Cl)c3)cnc12` gave a melting point of 250 to 251 °C. The result for `CCOC(=O)COc1ccc(C(=O)CN2CCN(c3ccncc3)CC2=O)cc1` reads 163 to 165 °C; that for `CN(c1cccc2cc(C(N)=S)[nH]c12)S(=O)(=O)c1cccs1`, 239 to 240 °C.

For the compound `COCC1CN(C(=O)c2cc(OC)c(OC)c(OC)c2)CCN1C(=O)OC(C)(C)C` (centres undefined), the melting point turned out to be 127 °C. The result for `NS(=O)(=O)c1cccc(NC(=O)c2cnn3c(C(F)(F)F)cc(-c4ccc(OC(F)(F)F)cc4)nc23)c1` reads 257 °C; that for `Nc1cccc2c1S(=O)(=O)CC2`, 117 to 119 °C; that for `CSc1nc(=O)n(-c2ccc(Cl)c(C(=O)OC(C)C)c2)c(=O)n1C#N`, 55 to 56 °C. `CCc1cc2ccccn2c1` displayed a melting point of 42 to 44 °C. For `CC(C)(C)C(CC#N)(SN=O)C(C)(C)C`, the melting point lay in the range of 92 to 93 °C.

Compound `CC(C)(C)c1nc2cc(N3CCN(c4ccccc4)CC3)c([N+](=O)[O-])cc2s1` yielded a melting point of 152 to 155 °C. The result for `O=C(CCl)Nc1ccccc1C1C=CCC1` (centres undefined) reads 101 to 102 °C; that for `Cn1cc(NC=O)cc1C(=O)O`, 208 to 210 °C.

In the case of `CC(=O)NCCSc1c(Cl)cc([N+](=O)[O-])c(C)c1[N+](=O)[O-]`, the melting point worked out at 152 °C. Turning to `Cc1c(CC(=O)N(C)C)oc2ccc(F)cc12`, the melting point is 88 to 90 °C. `COc1cc(OC)cc(C(=O)NCC(=O)N2c3ccccc3N(Cc3ccccc3)C(=O)[C@H]3CCC[C@H]32)c1` (relative stereo) came in with a melting point of 113 to 115 °C. Consider `O=C(O)c1ccc(CCCCc2ccccc2Oc2ccccc2)cc1`, for which the melting point came out at 120 °C.

`COCCN1CCN(CCc2ccccc2Nc2ncnc3[nH]cc(C(=O)c4ccccc4)c23)CC1` came in with a melting point of 192 to 193 °C. In turn, `COC(=O)CCCNC(=O)C(CO)NS(=O)(=O)c1ccc(Cl)cc1` (racemic) came in with a melting point of 119 to 121 °C.

The compound `N#Cc1cc2n(c1)CCc1ccccc1C2=O` registered a melting point of 146 to 147 °C.
